For the assay, the target named is Albumin (Homo sapiens, UniProt P02768). Put plainly: Binding affinity towards human serum albumin.
Albumin, sequence (P02768 whole entry): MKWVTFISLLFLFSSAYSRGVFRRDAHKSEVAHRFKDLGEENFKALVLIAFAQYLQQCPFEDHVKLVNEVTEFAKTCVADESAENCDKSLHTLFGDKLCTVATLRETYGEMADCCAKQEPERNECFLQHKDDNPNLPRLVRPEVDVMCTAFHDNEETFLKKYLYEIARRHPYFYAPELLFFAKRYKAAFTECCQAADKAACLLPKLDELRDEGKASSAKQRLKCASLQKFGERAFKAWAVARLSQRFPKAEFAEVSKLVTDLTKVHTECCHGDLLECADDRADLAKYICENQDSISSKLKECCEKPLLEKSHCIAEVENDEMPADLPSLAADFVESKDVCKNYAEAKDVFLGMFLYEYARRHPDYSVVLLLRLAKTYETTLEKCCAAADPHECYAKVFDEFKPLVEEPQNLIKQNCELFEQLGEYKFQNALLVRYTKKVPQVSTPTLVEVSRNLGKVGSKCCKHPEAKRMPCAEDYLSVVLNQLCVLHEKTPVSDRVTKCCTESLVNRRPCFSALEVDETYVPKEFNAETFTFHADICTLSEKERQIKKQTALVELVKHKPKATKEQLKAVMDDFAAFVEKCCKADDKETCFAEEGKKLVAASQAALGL

Compound `Cc1cc(CC(=O)O)n(C)c1C(=O)c1ccc(Cl)cc1` registered an Association constant (Ka) of 109000 M⁻¹. Regarding `CS(=O)(=O)Nc1ccc([N+](=O)[O-])cc1Oc1ccccc1`, the Ki came out at 15100 M⁻¹. Turning to `O=C(O)c1cccc(-c2ccccc2)c1`, the Association constant (Ka) turned out to be 251000 M⁻¹. On the same count and under the same terms, the value for `Nc1cccc(-c2ccc(O)c(C(=O)O)c2)c1` was 2750 M⁻¹; that for `CC(C)Cc1ccc([C@@H](C)C(=O)N[C@H](C)C(=O)O)cc1` was 39800 M⁻¹; that for `NCc1ccc(-c2ccc(C(=O)O)cc2)cc1` was 1000 M⁻¹. Same read-out and setting: under `CC(C)Cc1ccc([C@@H](C)C(=O)NCCCN(C)C)cc1` stands 5010 M⁻¹; under `C[C@@H](C(=O)NCCCN1CCCC1)c1ccc(OS(=O)(=O)C(F)(F)F)cc1`, 2690 M⁻¹; under `O=C(O)c1cccc(-c2ccc(Cl)cc2Cl)c1`, 23900 M⁻¹.

In turn, `Nc1cccc(-c2cccc(C(=O)O)c2)c1` came in with an Association constant (Ka) of 7760 M⁻¹. As to `C[C@@H](C(=O)NCCN1CCCC1)c1ccc(OS(=O)(=O)C(F)(F)F)cc1`, the Association constant (Ka) turned out to be 3890 M⁻¹.

`CC(C)Cc1ccc([C@@H](C)C(=O)NCCOCCO)cc1`: the Association constant (Ka) was 8120 M⁻¹.

For `CC(C)(C)c1ccc(O)c(C(=O)O)c1`, the Association constant (Ka) is 20400 M⁻¹.

The compound `CC(Cc1ccc([C@@H](C)C(=O)NS(C)(=O)=O)cc1)C(=O)O` (stereo not given in full) showed an Association constant (Ka) of 3890 M⁻¹. As to `COc1ccc2c(c1)CN(c1ccc(C(C)C(=O)O)cc1)C2=O` (stereo not given), the Association constant (Ka) came out at 81200 M⁻¹. `NCc1cc(-c2ccc(C(=O)O)cc2)ccc1F` had an Association constant (Ka) of 1000 M⁻¹.

As for `O=C(O)c1cccc(-c2cc(C(F)(F)F)cc(C(F)(F)F)c2)c1`, the Association constant (Ka) amounted to 3090 M⁻¹. The same measure, in the same setting: under `O=C(O)c1cccc(-c2cc(Cl)cc(Cl)c2)c1` stands 5750 M⁻¹. In the case of `C[C@@H](C(N)=O)c1ccc(OS(=O)(=O)C(F)(F)F)cc1`, the Association constant (Ka) is 19000 M⁻¹. Turning to `Nc1ccc(-c2cccc(C(=O)O)c2)cc1`, the Association constant (Ka) turned out to be 6160 M⁻¹. Take `CC(C)c1ccc(O)c(C(=O)O)c1`: the Association constant (Ka) came out at 26300 M⁻¹.

In turn, `CC(C(=O)O)c1ccc(-c2ccccc2)c(F)c1` (racemic) [2-(2-fluoro-[1,1'-biphenyl-4-yl])propanoic acid] returned an Association constant (Ka) of 331000 M⁻¹. Take `CC(C)NCC(O)c1ccc(NS(C)(=O)=O)cc1` (racemic) [Sotalol,(-)]: the Association constant (Ka) amounted to 354 M⁻¹. `CCCNC(=O)NS(=O)(=O)c1ccc(Cl)cc1` [1-(4-chlorophenylsulfonyl)-3-propylurea] returned an Association constant (Ka) of 39800 M⁻¹. Same read-out and setting: the value for `Cc1ccc(C(=O)c2ccc(CC(=O)O)n2C)cc1` [2-(1-methyl-5-(4-methylbenzoyl)-1H-pyrrol-2-yl)acetic acid] was 416000 M⁻¹; that for `O=C(O)c1cc(-c2ccccc2)ccc1O` [2-Hydroxy-5-phenylbenzoic acid] was 100000 M⁻¹. Compound `Oc1ccc(-c2ccccc2)cc1` [4-Hydroxybiphenyl] gave an Association constant (Ka) of 9540 M⁻¹.

Turning to `O=C(O)c1cc(Cl)ccc1O` [5-Chloro-2-hydroxy-benzoic acid], the Association constant (Ka) came to 21300 M⁻¹. Compound `CC(C)Cc1ccc([C@@H](C)C(=O)NS(C)(=O)=O)cc1` [(R)-2-(4-isobutylphenyl)-N-(methylsulfonyl)propanamide] gave an Association constant (Ka) of 1.65e+06 M⁻¹.

For the compound `O=C(O)c1ccc(-c2ccccc2)cc1` [Biphenyl-4-carboxylic acid], the Association constant (Ka) turned out to be 199000 M⁻¹. As for `Cc1ccc(S(=O)(=O)NC(=O)NN2CCCCCC2)cc1` [CHEBI:9613], the Association constant (Ka) stood at 53700 M⁻¹. The same measure, in the same setting: the value for `C[C@@H](C(=O)NS(C)(=O)=O)c1ccc(OS(=O)(=O)C(F)(F)F)cc1` [DF-2156A] was 831000 M⁻¹. Same read-out and setting: the value for `NS(=O)(=O)c1cc2c(cc1Cl)NCNS2(=O)=O` [JFD00715] was 2290 M⁻¹; that for `CC1=C(CC(=O)O)c2cc(F)ccc2/C1=C\c1ccc([S+](C)[O-])cc1` (stereo not given) [Sulindac] was 26300 M⁻¹; that for `O=C(c1ccccc1)c1ccc2n1CCC2C(=O)O` (stereo not given) [Toradol] was 208000 M⁻¹.

The values above are taken from BindingDB's records for doi:10.1021/jm049227l (Molecular Discovery, 2005).
